Some results are limits rather than exact numbers.

Broadly, the IC50 is the concentration needed to halve the response being measured. Low values mean greater potency in that assay, high ones weaker potency in that assay.

Type in all cases: cell-based
The subject of assay [1] is Ovarian cancer OVCAR-8 cells. Nature of the assay: Cancer cell viability assay with 3D cell colonies (CellTiter-Glo), OVCAR-8. As to conditions: Homo sapiens, 168 h; OVCAR-8, 3D methylcellulose colonies, 7 days. As to the method: (§1) Cancer cell lines were cultured in the following media: • Ovarian cancer OVCAR-8 cells—RPMI media containing 10% FBS • Ovarian cancer SK-OV-3 cells—McCoy's 5a media containing 10% FBS • Ovarian cancer SW756 cells—L-15 (100% air)+10% FBS • Esophageal cancer TE-1 cells—RPMI-1640+10% FBS • Esophageal cancer KYSE-410 cells—RPMI-1640+5˜10% FBS • Esophageal cancer KYSE-70 cells—RPMI-1640+10% h.i.FBS. • Pharyngeal cancer FaDu cells—MEM+0.01 mM NEAA+10% FBS
(§2) Cell colony formation was tested using a 3D methylcellulose-based CellTiter-Glo (CTG) viability assay (Cat. No: G7573, Promega). Briefly, cells were inoculated into 96-well plates (at 1,500 cells per well) into a solution of 0.65% methylcellulose in growth media and incubated overnight at 37° C. in 5% CO2. The next day, serially diluted test compound (islatravir, 4′-ethynyl-2-fluoro-2′-deoxyadenosine) or positive control (cisplatin, Cat. No. 6J015A89, Qilu Pharma) were added at the indicated concentrations, and the cells were incubated for 7 days. On day seven, 100 μL of CTG reagent was added, and the plates were incubated at room temperature for 20 min. Luminescence was read on an Envision Multi Label Reader according to manufacturer's instructions. IC50 values were determined using the following calculation: […]
In general terms: Cellular ATP, detected with luciferase, serves as a proxy for viable cell number.

The test system of assay [2] is Ovarian cancer SK-OV-3 cells. As to the kind of experiment: Cancer cell viability assay with 3D cell colonies (CellTiter-Glo), SK-OV-3. The settings on record: Homo sapiens, 168 h; SK-OV-3, 3D methylcellulose colonies, 7 days. The procedure: as §1, §2
The test system of assay [3] is Esophageal cancer TE-1 cells. Nature of the assay: Cancer cell viability assay with 3D cell colonies (CellTiter-Glo), TE-1. The settings on record: Homo sapiens, 168 h; TE-1, 3D methylcellulose colonies, 7 days. As to the method: as §1, §2
The subject of assay [4] is Pharyngeal cancer FaDu cells. As to the kind of experiment: Cancer cell viability assay with 3D cell colonies (CellTiter-Glo), FaDu. As to conditions: Homo sapiens, 168 h, 3D methylcellulose colonies, 7 days. As to the method:
as §1, §2

The test system of assay [5] is IFN-β production in PBMCs. Nature of the assay: Decitabine-stimulated human PBMC assay. The settings on record: anti-CD3/anti-CD28, 10 μM decitabine, 5 days. The procedure:
EasySep buffer (32 mL, Stem Cell, cat. #20144) was used to dilute 8 mL of LRSC buffy coat (from fresh Leukopak) with gentle mixing. The diluted buffy coat (20 mL) was transferred into each of two SepMate 50 tubes, and the tubes were filled with 15 mL of Lyphoprep (Stem Cell, ct. #07851) density gradient. The SepMate tubes were then centrifuged at 1200G for 10 minutes at room temperature with the brake on. The top layer of supernatant was collected in SepMate tubes by quickly pouring it into a new 50 mL conical tube. The PBMCs were washed with EasySep buffer ×2 by centrifuging at 300G for 5 minutes. The cells were resuspended in 30 mL of EasySep and centrifuged at 100G for 5 minutes with the brake off, and the platelets were removed. The cells were then resuspended in 6 mL of 1×RBC lysis buffer (InvitroGen) and incubated at 37° C. for 5 minutes. Then, 25 mL of EasySep buffer was mixed into the tube and it was centrifuged at 300G for 5 minutes. The cells were resuspended in 10 mL of EasySep buffer and the cells were then counted with Cellometer (AO/PI). The PBMCs were resuspended in RPMI1640 (ThermoFisher)+10% FBS (HyClone)+p/s at 3×10^6/mL. The PBMCs (100 μL, 300 k PBMCs) were then seeded in a 96-well flat bottom microplate (Corning) that had been precoated with 100 μL of anti-CD3 antibody (10 μg/mL in PBS, Biolegend) or PBS at 4° C., one day before the assay was commenced. […]

Turning to `C#C[C@]1(CO)O[C@@H](n2cnc3c(N)nc(F)nc32)C[C@@H]1O` [islatravir, 4′-ethynyl-2-fluoro-2′-deoxyadenosine], the IC50 is not above 10 µM in assay [1], not above 10 µM in assay [2], not above 10 µM in assay [3] and 10 to 30 µM in assay [4]. In addition, the “production of IFN-β” value in assay [5] is reported as “activated production of IFN-β”.

Source of the values: US20240366649A1, “4-ETHYNYL-3-HYDROXY-TETRAHYDROFURANYL-ADENINE PHOSPHORAMIDATES AND RELATED COMPOUNDS AND THEIR USE IN TREATING MEDICAL CONDITIONS” (ROME THERAPEUTICS, INC., priority 2021, published 2024).
